# Assay results published in the supplement of paper PMC7214452.
# Counter-ions that a name gives are not always drawn.
# Experiments:
# Assay in all cases: normalized area under the dose-response curve (viability relative to DMSO control) (fraction); higher = less sensitive (more viable cells)
# Conditions in all cases: exposure time not given
# AMO1 (cancer type: MM) = test system: AMO1 (cancer type: MM)
# Description: (§1)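 25 myeloma and 15 non-Hodgkin lymphoma cell lines were exposed to each of 76 drugs as 7-point log dilutions (0.01 nM–10 µM) in duplicate. Viability was read with CellTiter-Glo and normalised to DMSO (0.1%) and staurosporine (10 µM) plate controls. Normalised AUC was calculated by the trapezoidal method relative to the negative control.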
# EJM (cancer type: MM) = test system: EJM (cancer type: MM)
# Description: as §1
# FR4 (cancer type: MM) = test system: FR4 (cancer type: MM)
# Description: as §1
# [1] = test system: Granta-519 (cancer type: Mantle)
# Description: as §1
# [2] = test system: HuT 78 (cancer type: TCL)
# Description: as §1
# JJN3 (cancer type: MM) = test system: JJN3 (cancer type: MM)
# Description: as §1
# [3] = test system: JVM2 (cancer type: Mantle)
# Description: as §1
# [4] = test system: JeKo-1 (cancer type: Mantle)
# Description: as §1
# KMS11 (cancer type: MM) = test system: KMS11 (cancer type: MM)
# Description: as §1
# [5] = test system: KMS12PE (cancer type: MM)
# Description: as §1
# KMS18 (cancer type: MM) = test system: KMS18 (cancer type: MM)
# Description: as §1
# KMS26 (cancer type: MM) = test system: KMS26 (cancer type: MM)
# Description: as §1
# [6] = test system: KMS28BM (cancer type: MM)
# Description: as §1
# [7] = test system: KMS28PE (cancer type: MM)
# Description: as §1
# KMS34 (cancer type: MM) = test system: KMS34 (cancer type: MM)
# Description: as §1
# [8] = test system: Karpas-299 (cancer type: TCL)
# Description: as §1
# L363 (cancer type: MM) = test system: L363 (cancer type: MM)
# Description: as §1
# LP1 (cancer type: MM) = test system: LP1 (cancer type: MM)
# Description: as §1
# MM1.R (cancer type: MM) = test system: MM1.R (cancer type: MM)
# Description: as §1
# MM1.S (cancer type: MM) = test system: MM1.S (cancer type: MM)
# Description: as §1
# [9] = test system: Mino (cancer type: Mantle)
# Description: as §1
# My-La (cancer type: TCL) = test system: My-La (cancer type: TCL)
# Description: as §1
# [10] = test system: NCI-H929 (cancer type: MM)
# Description: as §1
# [11] = test system: OCI-LY1 (cancer type: DLBCL)
# Description: as §1
# [12] = test system: OCI-LY19 (cancer type: DLBCL)
# Description: as §1
# [13] = test system: OCI-LY3 (cancer type: DLBCL)
# Description: as §1
# [14] = test system: OCI-MY5 (cancer type: MM)
# Description: as §1
# [15] = test system: OCI-MY5/CRBN (cancer type: MM)
# Description: as §1
# [16] = test system: OCI-MY5/Vec (cancer type: MM)
# Description: as §1
# [17] = test system: OCI-MY7 (cancer type: MM)
# Description: as §1
# OPM2 (cancer type: MM) = test system: OPM2 (cancer type: MM)
# Description: as §1
# [18] = test system: RPMI 8226 (cancer type: MM)
# Description: as §1
# SKMM2 (cancer type: MM) = test system: SKMM2 (cancer type: MM)
# Description: as §1
# [19] = test system: SR-786 (cancer type: TCL)
# Description: as §1
# [20] = test system: SU-DHL1 (cancer type: TCL)
# Description: as §1
# [21] = test system: SU-DHL2 (cancer type: DLBCL)
# Description: as §1
# [22] = test system: SU-DHL6 (cancer type: DLBCL)
# Description: as §1
# Se-Ax (cancer type: TCL) = test system: Se-Ax (cancer type: TCL)
# Description: as §1
# U266 (cancer type: MM) = test system: U266 (cancer type: MM)
# Description: as §1
# XG2 (cancer type: MM) = test system: XG2 (cancer type: MM)
# Description: as §1
SMILES,normalized area under the dose-response curve (AMO1 (cancer type: MM)),normalized area under the dose-response curve (EJM (cancer type: MM)),normalized area under the dose-response curve (FR4 (cancer type: MM)),normalized area under the dose-response curve [1],normalized area under the dose-response curve [2],normalized area under the dose-response curve (JJN3 (cancer type: MM)),normalized area under the dose-response curve [3],normalized area under the dose-response curve [4],normalized area under the dose-response curve (KMS11 (cancer type: MM)),normalized area under the dose-response curve [5],normalized area under the dose-response curve (KMS18 (cancer type: MM)),normalized area under the dose-response curve (KMS26 (cancer type: MM)),normalized area under the dose-response curve [6],normalized area under the dose-response curve [7],normalized area under the dose-response curve (KMS34 (cancer type: MM)),normalized area under the dose-response curve [8],normalized area under the dose-response curve (L363 (cancer type: MM)),normalized area under the dose-response curve (LP1 (cancer type: MM)),normalized area under the dose-response curve (MM1.R (cancer type: MM)),normalized area under the dose-response curve (MM1.S (cancer type: MM)),normalized area under the dose-response curve [9],normalized area under the dose-response curve (My-La (cancer type: TCL)),normalized area under the dose-response curve [10],normalized area under the dose-response curve [11],normalized area under the dose-response curve [12],normalized area under the dose-response curve [13],normalized area under the dose-response curve [14],normalized area under the dose-response curve [15],normalized area under the dose-response curve [16],normalized area under the dose-response curve [17],normalized area under the dose-response curve (OPM2 (cancer type: MM)),normalized area under the dose-response curve [18],normalized area under the dose-response curve (SKMM2 (cancer type: MM)),normalized area under the dose-response curve [19],normalized area under the dose-response curve [20],normalized area under the dose-response curve [21],normalized area under the dose-response curve [22],normalized area under the dose-response curve (Se-Ax (cancer type: TCL)),normalized area under the dose-response curve (U266 (cancer type: MM)),normalized area under the dose-response curve (XG2 (cancer type: MM))
COc1cc2nccc(Oc3ccc(NC(=O)NC4CC4)c(Cl)c3)c2cc1C(N)=O [Lenvatinib],0.963,0.97,1.02,0.948,0.866,0.897,0.723,0.938,0.814,0.94,0.977,0.884,0.877,0.877,0.912,0.885,0.88,0.863,0.85,0.88,0.97,0.94,0.92,0.936,0.87,0.931,0.84,0.944,0.949,0.92,0.892,0.918,0.943,0.953,0.909,0.937,0.964,0.883,0.992,0.905
COc1cc(N2CCC(N3CCN(C)CC3)CC2)ccc1Nc1ncc(Cl)c(Nc2ccccc2P(C)(C)=O)n1 [Brigatinib],0.525,0.55,0.723,0.84,0.524,0.527,0.855,0.815,0.466,0.79,0.469,0.611,0.539,0.191,0.308,0.504,0.538,0.598,0.51,0.46,0.863,0.76,0.39,0.989,0.803,0.921,0.574,0.835,0.785,0.83,0.179,0.351,0.789,0.556,0.123,0.936,0.891,0.748,0.5,0.745
Cc1sc2c(c1C)C(c1ccc(Cl)cc1)=N[C@@H](CC(=O)Nc1ccc(O)cc1)c1nnc(C)n1-2 [otx-015],0.497,0.685,0.732,0.902,0.859,0.568,0.609,0.84,0.656,0.59,0.713,0.395,0.801,0.681,0.514,0.628,0.545,0.701,0.61,0.56,0.595,0.796,0.54,0.752,0.637,0.759,0.491,0.641,0.563,0.4,0.7,0.642,0.657,0.695,0.729,0.558,0.757,0.657,0.62,0.622
CO[C@H]1C[C@@H]2CC[C@@H](C)[C@@](O)(O2)C(=O)C(=O)N2CCCC[C@H]2C(=O)O[C@H]([C@H](C)C[C@@H]2CC[C@@H](OCCO)[C@H](OC)C2)CC(=O)[C@H](C)/C=C(\C)[C@@H](O)[C@@H](OC)C(=O)[C@H](C)C[C@H](C)/C=C/C=C/C=C/1C [Everolimus],0.637,0.661,0.758,0.783,0.699,0.656,0.64,0.876,0.674,0.72,0.617,0.76,0.813,0.699,0.557,0.682,0.627,0.831,0.63,0.63,0.72,0.711,0.71,0.665,0.592,0.785,0.676,0.829,0.819,0.83,0.593,0.769,0.802,0.729,0.639,0.566,0.685,0.545,0.606,0.505
C=CC(=O)Nc1cc(Nc2nccc(-c3cn(C)c4ccccc34)n2)c(OC)cc1N(C)CCN(C)C [Osimertinib],0.423,0.429,0.582,0.834,0.473,0.439,0.597,0.626,0.417,0.46,0.442,0.532,0.53,0.476,0.337,0.574,0.466,0.406,0.45,0.44,0.601,0.769,0.47,0.937,0.872,0.931,0.399,0.551,0.535,0.42,0.489,0.429,0.506,0.521,0.463,0.925,0.911,0.445,0.451,0.422
Cc1ccc(Nc2nccc(N(C)c3ccc4c(C)n(C)nc4c3)n2)cc1S(N)(=O)=O [Pazopanib hydrochloride],0.798,0.861,0.759,0.899,0.795,0.628,0.721,0.881,0.713,0.82,0.732,0.848,0.921,0.796,0.347,0.829,0.666,0.602,0.77,0.79,0.939,0.879,0.77,0.906,0.859,1,0.667,0.855,0.764,0.78,0.653,0.827,0.86,0.789,0.833,0.931,0.99,0.732,0.681,0.876
